Experimental data reported in patent publication US7932255B2, “2-aminocarbonyl substituted piperazine or diaza-cyclic compounds as apoptosis protein inhibitors (lap) modulators” (Novartis AG, priority 2006, dated 2011).
Like-named read-outs stand apart in the source and are kept apart here.

Molecular target: T1, XIAP (Homo sapiens, UniProt P98170)
T1 construct: GST
Test: Disruption of the Smac peptide-(XIAP)BIR3 protein-protein interaction (Tables 2 and 3)
Assay type: binding
Procedure: IC50 values for Series A compounds for XIAP. An assay capable of measuring disruption of the Smac peptide-(XIAP)BIR3 protein-protein interaction is established in the art as described in Example 2. In this assay IAP Inhibitor compounds compete with an immobilized Smac peptide for occupancy of the BIR3 binding pocket of XIAP. The rationale for this strategy results from the mutually exclusive nature of either Caspase 9 or Smac binding to the BIR3 pocket.
Assays are performed and IC50 values are calculated as follows: […]
IC50 values are calculated by logarithmic regression analysis of the percentage inhibition of each compound at 4 concentrations (usually 3- or 10-fold dilution series starting at 10 μM). In each experiment, the actual inhibition by reference compound is used for normalization of IC50 values to the basis of an average value of the reference inhibitor: Normalized IC50=measured IC50 average ref. IC50/measured ref. IC50
Activity determinations of compounds herein using the testing method described herein and as are well known in the art, are used with the following test compounds of formula (I). […] “Activity” as used herein is defined as having IC50 values for IAP target inhibition of less than 10 μM. Specifically, in the table:
IC50 values for Series B compounds are provided for XIAP. Assays are performed as described above using methods well known in the art.

[1] = Series A compounds, Table 2, read-out: XIAP IC50
[2] = Series B compounds, Table 3, read-out: XIXP IC50

T1 sequence (P98170 248-358 limits assumed, species assumed): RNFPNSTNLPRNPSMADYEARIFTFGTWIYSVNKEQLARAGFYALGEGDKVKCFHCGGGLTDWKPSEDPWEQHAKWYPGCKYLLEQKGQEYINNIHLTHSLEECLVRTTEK

CN[C@@H](C)C(=O)N[C@H](C(=O)N1CCN(Cc2ccc(C(F)(F)F)cc2)C[C@H]1C(=O)NC1CCCc2ccccc21)C(C)C (stereo partly drawn) [Compound 12, (S)-1-[(S)-3-Methyl-2-((S)-2-methylamino-propionylamino)-butyryl]-4-(4-trifluoromethyl-benzyl)-piperazine-2-carboxylic acid (1,2,3,4-tetrahydro-naphthalen-1-yl)-amide]
IC50 [1]: < 10 µM

CN[C@@H](C)C(=O)N[C@H](C(=O)N1CCNC[C@H]1C(=O)NC1CCCc2ccccc21)C(C)C (stereo partly drawn) [Compound 56, (S)-1-[(S)-3-Methyl-2-((S)-2-methylamino-propionylamino)-butyryl]-piperazine-2-carboxylic acid (1,2,3,4-tetrahydro-naphthalen-1-yl)-amide]
IC50 [1]: < 10 µM

CN[C@@H](C)C(=O)N[C@H](C(=O)N1CCN(Cc2ccc(C#N)cc2)C[C@H]1C(=O)NC1CCCc2ccccc21)C(C)C (stereo partly drawn) [Compound 43, (S)-4-(4-Cyano-benzyl)-1-[(S)-3-methyl-2-((S)-2-methylamino-propionylamino)-butyryl]-piperazine-2-carboxylic acid (1,2,3,4-tetrahydro-naphthalen-1-yl)-amide]
IC50 [1]: < 10 µM

CN[C@@H](C)C(=O)N[C@H](C(=O)N1CCN(Cc2cccc3[nH]ccc23)C[C@H]1C(=O)NC1CCCc2ccccc21)C(C)C (stereo partly drawn) [Compound 15, (S)-4-(1H-Indol-4-ylmethyl)-1-[(S)-3-methyl-2-((S)-2-methylamino-propionylamino)-butyryl]-piperazine-2-carboxylic acid (1,2,3,4-tetrahydro-naphthalen-1-yl)-amide]
IC50 [1]: < 10 µM

CN[C@@H](C)C(=O)N[C@H](C(=O)N1CCN(C(=O)OCc2ccccc2)C[C@H]1C(=O)NC1CCCc2ccccc21)C(C)C (stereo partly drawn) [Compound 13, (S)-4-[(S)-3-Methyl-2-((S)-2-methylamino-propionylamino)-butyryl]-3-(1,2,3,4-tetrahydro-naphthalen-1-ylcarbamoyl)-piperazine-1-carboxylic acid benzyl ester]
IC50 [1]: < 10 µM

CN[C@@H](C)C(=O)N[C@H](C(=O)N1CCN(Cc2ccccc2)C[C@H]1C(=O)NC1CCCc2ccccc21)C1CCCCC1 (stereo partly drawn) [Compound 55, (S)-4-Benzyl-1-[(S)-2-cyclohexyl-2-((S)-2-methylamino-propionylamino)-acetyl]-piperazine-2-carboxylic acid (1,2,3,4-tetrahydro-naphthalen-1-yl)-amide]
IC50 [1]: < 10 µM

CN[C@@H](C)C(=O)N[C@H](C(=O)N1CCN(Cc2ccc(NC(C)=O)cc2)C[C@H]1C(=O)NC1CCCc2ccccc21)C(C)C (stereo partly drawn) [Compound 16, (S)-4-(4-Acetylamino-benzyl)-1-[(S)-3-methyl-2-((S)-2-methylamino-propionylamino)-butyryl]-piperazine-2-carboxylic acid (1,2,3,4-tetrahydro-naphthalen-1-yl)-amide]
IC50 [1]: < 10 µM

CN[C@@H](C)C(=O)N[C@H](C(=O)N1CCN(S(=O)(=O)c2ccc(F)cc2)C[C@H]1C(=O)NC1CCCc2ccccc21)C(C)C (stereo partly drawn) [Compound 35, (S)-4-(4-Fluoro-benzenesulfonyl)-1-[(S)-3-methyl-2-((S)-2-methylamino-propionylamino)-butyryl]-piperazine-2-carboxylic acid (1,2,3,4-tetrahydro-naphthalen-1-yl)-amide]
IC50 [1]: < 10 µM

CN[C@@H](C)C(=O)N[C@H](C(=O)N1CCN(Cc2ccccc2)C[C@H]1C(=O)N[C@H](C)c1ccccc1)C(C)C [Compound 87, (S)-4-Benzyl-1-[(S)-3-methyl-2-((S)-2-methylamino-propionylamino)-butyryl]-piperazine-2-carboxylic acid ((R)-1-phenyl-ethyl)-amide]
IC50 [2]: < 10 µM

CN[C@@H](C)C(=O)N[C@H](C(=O)N1CCN(CCC(C)C)C[C@H]1C(=O)NC1CCCc2ccccc21)C(C)C (stereo partly drawn) [Compound 24, (S)-4-(3-Methyl-butyl)-1-[(S)-3-methyl-2-((S)-2-methylamino-propionylamino)-butyryl]-piperazine-2-carboxylic acid (1,2,3,4-tetrahydro-naphthalen-1-yl)-amide]
IC50 [1]: < 10 µM

CN[C@@H](C)C(=O)N[C@H](C(=O)N1CCN(Cc2ccccc2Cl)C[C@H]1C(=O)NC1CCCc2ccccc21)C(C)C (stereo partly drawn) [Compound 45, (S)-4-(2-Chloro-benzyl)-1-[(S)-3-methyl-2-((S)-2-methylamino-propionylamino)-butyryl]-piperazine-2-carboxylic acid (1,2,3,4-tetrahydro-naphthalen-1-yl)-amide]
IC50 [1]: < 10 µM

CN[C@@H](C)C(=O)N[C@H](C(=O)N1CCN(Cc2ccccc2)C[C@H]1C(=O)NCc1cc(F)cc(F)c1)C(C)C [Compound 84, (S)-4-Benzyl-1-[(S)-3-methyl-2-((S)-2-methylamino-propionylamino)-butyryl]-piperazine-2-carboxylic acid 3,5-difluoro-benzylamide]
IC50 [2]: < 10 µM

CN[C@@H](C)C(=O)N[C@H](C(=O)N1CCN(Cc2ccccc2)C[C@H]1C(=O)NC1CCc2ccccc21)C(C)C (stereo partly drawn) [Compound 62, (S)-4-Benzyl-1-[(S)-3-methyl-2-((S)-2-methylamino-propionylamino)-butyryi]-piperazine-2-carboxylic acid indan-1-ylamide]
IC50 [2]: < 10 µM

CN[C@@H](C)C(=O)N[C@H](C(=O)N1CCN(Cc2ccc(OC(F)(F)F)cc2)C[C@H]1C(=O)NC1CCCc2ccccc21)C(C)C (stereo partly drawn) [Compound 23, (S)-1-[(S)-3-Methyl-2-((S)-2-methylamino-propionylamino)-butyryl]-4-(4-trifluoromethoxy-benzyl)-piperazine-2-carboxylic acid (1,2,3,4-tetrahydro-naphthalen-1-yl)-amide]
IC50 [1]: < 10 µM

CN[C@@H](C)C(=O)N[C@H](C(=O)N1CCN(Cc2ccccc2)C[C@H]1C(=O)NCC1CCCCC1)C(C)C [Compound 79, (S)-4-Benzyl-1-[(S)-3-methyl-2-((S)-2-methylamino-propionylamino)-butyryl]-piperazine-2-carboxylic acid cyclohexylmethyl-amide]
IC50 [2]: < 10 µM

CN[C@@H](C)C(=O)N[C@H](C(=O)N1CCN(CC2CCCCC2)C[C@H]1C(=O)NC1CCCc2ccccc21)C(C)C (stereo partly drawn) [Compound 19, (S)-4-Cyclohexylmethyl-1-[(S)-3-methyl-2-((S)-2-methylamino-propionylamino)-butyryl]-piperazine-2-carboxylic acid (1,2,3,4-tetrahydro-naphthalen-1-yl)-amide]
IC50 [1]: < 10 µM

CCN(C(=O)[C@@H]1CN(Cc2ccccc2)CCN1C(=O)[C@@H](NC(=O)[C@H](C)NC)C(C)C)C1CCCc2ccccc21 (stereo partly drawn) [Compound 76, (S)-4-Benzyl-1-[(S)-3-methyl-2-((S)-2-methylamino-propionylamino)-butyrl]-piperazine-2-carboxylic acid ethyl-(1,2,3,4-tetrahydro-naphthalen-1-yl)-amide]
IC50 [2]: < 10 µM

CN[C@@H](C)C(=O)N[C@H](C(=O)N1CCN(Cc2ccccc2)C[C@H]1C(=O)NCCc1ccncc1)C(C)C [Compound 69, (S)-4-Benzyl-1-[(S)-3-methyl-2-((S)-2-methylamino-propionylamino)-butyryl]-piperazine-2-carboxylic acid (2-pyridin-4-yl-ethyl)-amide]
IC50 [2]: > 10 µM
